Test results reported in US20230278972A1, “SUBSTITUTED HALOALKYL SULFONANILIDE HERBICIDES” (FMC Corporation, priority 2020, published 2023).

Legend:
Format in all cases: in vivo
[1] = test system: Ryegrass, Italian (Italian ryegrass, Lolium multiflorum); test: Test A postemergence, Ryegrass, Italian; details: Postemergence
In short: (§1)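 Greenhouse pot test in a loam–sand blend; compounds delivered in a non-phytotoxic solvent carrying a surfactant, applied either as a directed spray to soil at seeding or over seedlings 2 to 10 cm high with one to two leaves.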

[2] = test system: ragweed (common ragweed, Ambrosia artemisiifolia); test: Test A preemergence, ragweed; details: Preemergence; for Plant response rating, Ragweed: 0 to 100 scale (0 no effect, 100 complete control); for Ragweed plant response rating: visual injury on 0 to 100 scale (0 no effect, 100 complete control), approximately 10 days
In short: as §1

[3] = test system: pigweed (Amaranthus retroflexus); test: Test A preemergence, pigweed; details: for Plant response rating, Pigweed: 0 to 100 scale (0 no effect, 100 complete control); for Pigweed plant response rating: visual injury on 0 to 100 scale (0 no effect, 100 complete control), approximately 10 days
In short: (§2)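 Preemergence: seeded pots of loam plus sand received a directed soil spray. Postemergence: seedlings at one to two leaves, 2 to 10 cm high, were oversprayed. Each compound was formulated in a non-phytotoxic solvent mix that included a surfactant.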

[4] = test system: Foxtail, Giant (giant foxtail, Setaria faberi); test: Test A preemergence, Foxtail, Giant; details: Preemergence; for Plant response rating, Foxtail, Giant: 0 to 100 scale (0 no effect, 100 complete control); for Foxtail, Giant plant response rating: visual injury on 0 to 100 scale (0 no effect, 100 complete control), approximately 10 days
In short: as §1

[5] = test system: wheat (Triticum aestivum); test: Test A postemergence, wheat; details: Postemergence
In short: as §2

[6] = test system: pigweed (Amaranthus retroflexus); test: Test A postemergence, pigweed; details: Postemergence
In short: as §1

[7] = test system: blackgrass (Alopecurus myosuroides); test: Test A postemergence, blackgrass; details: Postemergence
In short: as §1

corn (Zea mays) = test: Test A postemergence, corn; details: Postemergence
In short: as §1

[8] = test system: barnyardgrass (Echinochloa crus-galli); test: Test A postemergence, barnyardgrass; details: Postemergence
In short: as §2

[9] = test system: barnyardgrass (Echinochloa crus-galli); test: Test A preemergence, barnyardgrass; details: Preemergence; for Plant response rating, Barnyardgrass: 0 to 100 scale (0 no effect, 100 complete control); for Barnyardgrass plant response rating: visual injury on 0 to 100 scale (0 no effect, 100 complete control), approximately 10 days
In short: as §1

kochia (Bassia scoparia) [10] = test: Test A postemergence, kochia; details: Postemergence
In short: as §1

[11] = test system: Foxtail, Giant (giant foxtail, Setaria faberi); test: Test A postemergence, Foxtail, Giant; details: Postemergence
In short: as §1

[12] = test system: ragweed (common ragweed, Ambrosia artemisiifolia); test: Test A postemergence, ragweed; details: Postemergence
In short: as §1

kochia (Bassia scoparia) [13] = test: Test A preemergence, kochia; details: Preemergence; for Plant response rating, Kochia: 0 to 100 scale (0 no effect, 100 complete control); for Kochia plant response rating: visual injury on 0 to 100 scale (0 no effect, 100 complete control), approximately 10 days
In short: as §1

[14] = test system: galium (catchweed bedstraw, Galium aparine); test: Test A postemergence, galium; details: Postemergence
In short: as §2

[15] = test system: Ryegrass, Italian (Italian ryegrass, Lolium multiflorum); test: Test A preemergence, Ryegrass, Italian; details: Preemergence; for Plant response rating, Ryegrass, Italian: 0 to 100 scale (0 no effect, 100 complete control); for Ryegrass, Italian plant response rating: visual injury on 0 to 100 scale (0 no effect, 100 complete control), approximately 10 days
In short: as §1

[16] = 125 g ai/ha, 0 to 100 scale (0 no effect, 100 complete control)
[17] = 500 g ai/ha, visual injury approx. 10 days, 0 to 100 scale (0 no effect, 100 complete control)
[18] = 125 g ai/ha, visual injury, approx. 10 days
[19] = 31 g ai/ha, visual injury on 0 to 100 scale (0 no effect, 100 complete control), approx. 10 days
[20] = 31 g ai/ha, visual injury, approx. 10 days
[21] = 125 g ai/ha, visual injury approx. 10 days, 0 to 100 scale (0 no effect, 100 complete control)
[22] = 500 g ai/ha, visual injury, 0 to 100 scale (0 no effect, 100 complete control), approx. 10 days

SMILES: Cc1cc(Cl)c(C(=O)N2CCOCC2)cc1NS(=O)(=O)C(F)(F)F [Compound 248]
- Plant response rating, Ryegrass, Italian [1, 16]: 0
- Plant response rating, Ryegrass, Italian [1, 17]: 70
- Plant response rating, Ragweed [2, 18]: 80
- Ragweed plant response rating ([2]; 500 g ai/ha): 90
- Plant response rating, Pigweed [3, 18]: 90
- Pigweed plant response rating ([3]; 500 g ai/ha): 90
- Plant response rating, Foxtail, Giant [4, 18]: 40
- Foxtail, Giant plant response rating ([4]; 500 g ai/ha): 80
- Plant response rating, Wheat [5, 16]: 40
- Plant response rating, Wheat [5, 17]: 60
- Plant response rating, Pigweed [6, 16]: 80
- Plant response rating, Pigweed [6, 17]: 80
- Plant response rating, Blackgrass [7, 16]: 0
- Plant response rating, Blackgrass [7, 17]: 60
- Plant response rating, Corn (corn (Zea mays); [16]): 0
- Plant response rating, Corn (corn (Zea mays); [17]): 0
- Plant response rating, Barnyardgrass [8, 16]: 60
- Plant response rating, Barnyardgrass [8, 17]: 90
- Plant response rating, Barnyardgrass [9, 18]: 80
- Barnyardgrass plant response rating ([9]; 500 g ai/ha): 90
- Plant response rating, Kochia (kochia (Bassia scoparia) [10]; [16]): 60
- Plant response rating, Kochia (kochia (Bassia scoparia) [10]; [17]): 90
- Plant response rating, Foxtail, Giant [11, 16]: 20
- Plant response rating, Foxtail, Giant [11, 17]: 50
- Plant response rating, Ragweed [12, 16]: 90
- Plant response rating, Ragweed [12, 17]: 90
- Plant response rating, Kochia (kochia (Bassia scoparia) [13]; [18]): 90
- Kochia plant response rating (kochia (Bassia scoparia) [13]; 500 g ai/ha): 90
- Plant response rating, Galium [14, 16]: 70
- Plant response rating, Galium [14, 17]: 90
- Plant response rating, Ryegrass, Italian [15, 18]: 70
- Ryegrass, Italian plant response rating ([15]; 500 g ai/ha): 90

SMILES: Cc1c(C(=O)N2CCOCC2)cc(N(S(=O)(=O)C(F)(F)F)S(=O)(=O)C(F)(F)F)c(C)c1F [Compound 174]
- Plant response rating, Ryegrass, Italian [1, 19]: 0
- Plant response rating, Ryegrass, Italian [1, 16]: 0
- Plant response rating, Ragweed [2, 20]: 30
- Ragweed plant response rating ([2]; 125 g ai/ha): 90
- Plant response rating, Pigweed [3, 20]: 90
- Pigweed plant response rating ([3]; 125 g ai/ha): 100
- Plant response rating, Foxtail, Giant [4, 20]: 30
- Foxtail, Giant plant response rating ([4]; 125 g ai/ha): 90
- Plant response rating, Wheat [5, 19]: 0
- Plant response rating, Wheat [5, 16]: 0
- Plant response rating, Pigweed [6, 19]: 70
- Plant response rating, Pigweed [6, 16]: 90
- Plant response rating, Blackgrass [7, 19]: 0
- Plant response rating, Blackgrass [7, 16]: 0
- Plant response rating, Corn (corn (Zea mays); [19]): 0
- Plant response rating, Corn (corn (Zea mays); [16]): 20
- Plant response rating, Barnyardgrass [8, 19]: 0
- Plant response rating, Barnyardgrass [8, 16]: 60
- Plant response rating, Barnyardgrass [9, 20]: 10
- Barnyardgrass plant response rating ([9]; 125 g ai/ha): 80
- Plant response rating, Kochia (kochia (Bassia scoparia) [10]; [19]): 10
- Plant response rating, Kochia (kochia (Bassia scoparia) [10]; [16]): 30
- Plant response rating, Foxtail, Giant [11, 19]: 0
- Plant response rating, Foxtail, Giant [11, 16]: 0
- Plant response rating, Ragweed [12, 19]: 70
- Plant response rating, Ragweed [12, 16]: 90
- Plant response rating, Kochia (kochia (Bassia scoparia) [13]; [20]): 40
- Kochia plant response rating (kochia (Bassia scoparia) [13]; 125 g ai/ha): 80
- Plant response rating, Galium [14, 19]: 50
- Plant response rating, Galium [14, 16]: 80
- Plant response rating, Ryegrass, Italian [15, 20]: 40
- Ryegrass, Italian plant response rating ([15]; 125 g ai/ha): 60

SMILES: Cc1cc(Cl)c(NS(=O)(=O)C(F)(F)F)cc1C(=O)N1CC(C)OC(C)C1 (stereo not drawn) [Compound 20]
- Plant response rating, Ryegrass, Italian [1, 21]: 70
- Plant response rating, Ryegrass, Italian [1, 22]: 70
- Ragweed plant response rating ([2]; 125 g ai/ha): 90
- Plant response rating, Ragweed ([2]; 500 g ai/ha): 100
- Pigweed plant response rating ([3]; 125 g ai/ha): 20
- Plant response rating, Pigweed ([3]; 500 g ai/ha): 80
- Foxtail, Giant plant response rating ([4]; 125 g ai/ha): 80
- Plant response rating, Foxtail, Giant ([4]; 500 g ai/ha): 100
- Plant response rating, Wheat [5, 21]: 60
- Plant response rating, Wheat [5, 22]: 70
- Plant response rating, Pigweed [6, 21]: 30
- Plant response rating, Pigweed [6, 22]: 80
- Plant response rating, Blackgrass [7, 21]: 30
- Plant response rating, Blackgrass [7, 22]: 30
- Plant response rating, Corn (corn (Zea mays); [21]): 10
- Plant response rating, Corn (corn (Zea mays); [22]): 70
- Plant response rating, Barnyardgrass [8, 21]: 60
- Plant response rating, Barnyardgrass [8, 22]: 80
- Barnyardgrass plant response rating ([9]; 125 g ai/ha): 100
- Plant response rating, Barnyardgrass ([9]; 500 g ai/ha): 100
- Plant response rating, Kochia (kochia (Bassia scoparia) [10]; [21]): 10
- Plant response rating, Kochia (kochia (Bassia scoparia) [10]; [22]): 30
- Plant response rating, Foxtail, Giant [11, 21]: 60
- Plant response rating, Foxtail, Giant [11, 22]: 90
- Plant response rating, Ragweed [12, 21]: 80
- Plant response rating, Ragweed [12, 22]: 80
- Kochia plant response rating (kochia (Bassia scoparia) [13]; 125 g ai/ha): 40
- Plant response rating, Kochia (kochia (Bassia scoparia) [13]; 500 g ai/ha): 90
- Plant response rating, Galium [14, 21]: 90
- Plant response rating, Galium [14, 22]: 90
- Ryegrass, Italian plant response rating ([15]; 125 g ai/ha): 50
- Plant response rating, Ryegrass, Italian ([15]; 500 g ai/ha): 100
